The values below come from US10227346B2, “Methyl- and trifluoromethyl-substituted pyrrolopyridine modulators of RORC2 and methods of use therof” (Pfizer Inc., priority 2014, dated 2019).

The test relates to IL-17 production from human Th17 cells. Description: IL-17 production from human Th17 cells.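 Further: purified human CD4+ T cells activated with anti-CD3 plus anti-CD28 and a Th17-inducing cytokine cocktail, with compound at serial concentrations versus no compound.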 The test is classed as cell-based. The note with it: IL-17A in supernatant by ELISA after 6 days, human CD4+ T cells under Th17 differentiation. For orientation: ELISA stands for enzyme-linked immunosorbent assay.
Molecule `CC(C)C(=O)N1CCC(c2cn(C)c3ncc(NC(=O)c4cccc(C#N)c4)c(C(F)(F)F)c23)CC1` [Example 5, 3-cyano-N-(3-(1-isobutyrylpiperidin-4-yl)-1-methyl-4-(trifluoromethyl)-1H-pyrrolo[2,3-b]pyridin-5-yl)benzamide] came in with an IC50 of 9.5 nM.
Then `Cc1c(NC(=O)c2cccc(C#N)c2)cnc2c1c(C1CCN(C(=O)[C@@H]3CCC[C@H]3C)CC1)cn2C` (single isomer, unassigned) [Example 47], with 8.4 nM; and `Cc1c(NC(=O)c2cccc(C#N)c2)cnc2c1c(C1CCN(C(=O)[C@H]3CCC[C@@H]3C)CC1)cn2C` (single isomer, unassigned) [Example 46], with 57.4 nM.
Next, `Cc1c(NC(=O)c2cccc(C#N)c2)cnc2c1c([C@@H]1CCN(C(=O)C(C)C3CC3)C[C@@H]1C)cn2C` (stereo partly drawn) [Example 86, 3-cyano-N-(3-((3R,4R)-1-(2-cyclopropylpropanoyl)-3-methylpiperidin-4-yl)-1,4-dimethyl-1H-pyrrolo[2,3-b]pyridin-5-yl)benzamide]: 34.9 nM; `Cn1cc(C2CCN(C(=O)[C@@H]3CCCS3)CC2)c2c(C(F)(F)F)c(NC(=O)c3cccc(C#N)c3)cnc21` (single isomer, unassigned) [Example 29]: 8.5 nM; `Cc1ccc(C(=O)Nc2cnc3c(c([C@@H]4CCN(C(=O)C5CCCC5)C(C)(C)C4)cn3C)c2C)cc1C#N` [Example 59, (R)-3-cyano-N-(3-(1-(cyclopentanecarbonyl)-2,2-dimethylpiperidin-4-yl)-1,4-dimethyl-1H-pyrrolo[2,3-b]pyridin-5-yl)-4-methylbenzamide]: 9.9 nM.
`Cn1cc(C2[C@@H]3CC[C@H]2CN(C(=O)C2CCCC2)C3)c2c(C(F)(F)F)c(NC(=O)c3cccc(C#N)c3)cnc21` (stereo partly drawn) [Example 79, 3-cyano-N-{3-((1R,5S,8r)-3-(cyclopentanecarbonyl)-3-azabicyclo[3.2.1]octan-8-yl]-1-methyl-4-(trifluoromethyl)-1H-pyrrolo[2,3-b]pyridin-5-yl}benzamide] showed an IC50 of 4.1 nM.
Next, `Cc1c(NC(=O)c2cccc(C#N)c2)cnc2c1c([C@@H]1CCN(C(=O)C(C)C)[C@@H](C)C1)cn2C` [Example 113, 3-cyano-N-(3-((2S,4R)-1-isobutyryl-2-methylpiperidin-4-yl)-1,4-dimethyl-1H-pyrrolo[2,3-b]pyridin-5-yl)benzamide]: 29.8 nM; `CC(C)C(=O)N1C[C@H]2CC[C@@H](C1)[C@@H]2c1cn(C)c2ncc(NC(=O)c3cccc(C#N)c3)c(C(F)(F)F)c12` [Example 77, 3-cyano-N-(3-((1R,5S,8r)-3-isobutyryl-3-azabicyclo[3.2.1]octan-8-yl)-1-methyl-4-(trifluoromethyl)-1H-pyrrolo[2,3-b]pyridin-5-yl)benzamide]: 8.9 nM.
`Cn1cc(C2CCN(C(=O)CC3CCCCC3)CC2)c2c(C(F)(F)F)c(NC(=O)c3cccc(C#N)c3)cnc21` [Example 20, 3-cyano-N-(3-(1-(2-cyclohexylacetyl)piperidin-4-yl)-1-methyl-4-(trifluoromethyl)-1H-pyrrolo[2,3-b]pyridin-5-yl)benzamide]: it took 18.5 nM to reach half-maximal inhibition (IC50).
Consider `Cc1c(NC(=O)c2cccc(C#N)c2)cnc2c1c(C1CCN(C(=O)[C@@H]3CCC[C@@H]3C(C)C)CC1)cn2C` (single isomer, unassigned) [Example 48], for which the midpoint of inhibition, the IC50, lay at 13.4 nM.
Regarding `Cn1cc(C2CCN(C(=O)CC3CC3)CC2)c2c(C(F)(F)F)c(NC(=O)c3cccc(C#N)c3)cnc21` [Example 24, 3-cyano-N-(3-(1-(2-cyclopropylacetyl)piperidin-4-yl)-1-methyl-4-(trifluoromethyl)-1H-pyrrolo[2,3-b]pyridin-5-yl)benzamide], the IC50 came out at 17.4 nM.
`Cc1c(NC(=O)c2cccc(C#N)c2)cnc2c1c(C1CCN(C(=O)[C@H](C)C3CCCC3)CC1)cn2C` [Example 51, (R)-3-cyano-N-(3-(1-(2-cyclopentylpropanoyl)piperidin-4-yl)-1,4-dimethyl-1H-pyrrolo[2,3-b]pyridin-5-yl)benzamide] displayed a 50% inhibitory concentration (IC50) of 6.4 nM.
For the molecule `Cc1c(NC(=O)c2cccc(C#N)c2)cnc2c1c([C@@H]1CCN(C(=O)C[C@@H](O)C(F)(F)F)C(C)(C)C1)cn2C` [Example 73, 3-cyano-N-(3-((R)-2,2-dimethyl-1-((R)-4,4,4-trifluoro-3-hydroxybutanoyl)piperidin-4-yl)-1,4-dimethyl-1H-pyrrolo[2,3-b]pyridin-5-yl)benzamide], the IC50 stood at 25.3 nM.
For `Cc1c(NC(=O)c2cc(O)cc(C#N)c2)cnc2c1c([C@@H]1CCN(C(=O)C3CCCC3)C(C)(C)C1)cn2C` [Example 64, (R)-3-cyano-N-(3-(1-(cyclopentanecarbonyl)-2,2-dimethylpiperidin-4-yl)-1,4-dimethyl-1H-pyrrolo[2,3-b]pyridin-5-yl)-5-hydroxybenzamide], it took 10.2 nM to reach half-maximal inhibition (IC50).
`Cc1c(NC(=O)c2cc(O)cc(C#N)c2)cnc2c1c(C1CCN(C(=O)[C@H](C)C(C)(C)C)CC1)cn2C` [Example 56, (R)-3-cyano-N-(1,4-dimethyl-3-(1-(2,3,3-trimethylbutanoyl)piperidin-4-yl)-1H-pyrrolo[2,3-b]pyridin-5-yl)-5-hydroxybenzamide]: the IC50 was 4.9 nM.
As to `COc1ccc(C(=O)Nc2cnc3c(c(C4CCN(C(=O)C(C)C)CC4)cn3C)c2C)cc1C#N` [Example 110, 3-cyano-N-(3-(1-isobutyrylpiperidin-4-yl)-1,4-dimethyl-1H-pyrrolo[2,3-b]pyridin-5-yl)-4-methoxybenzamide], the IC50 amounted to 24.7 nM.
`COc1cc(Cl)cc(C(=O)Nc2cnc3c(c(C4CCN(C(=O)[C@H](C)C(C)(C)C)CC4)cn3C)c2C)c1` [Example 42, (R)-3-chloro-N-(1,4-dimethyl-3-(1-(2,3,3-trimethylbutanoyl)piperidin-4-yl)-1H-pyrrolo[2,3-b]pyridin-5-yl)-5-methoxybenzamide] had an IC50 of 31.3 nM.
Next, `CC(C)C(=O)N1CC[C@@H](c2cn(C)c3ncc(NC(=O)c4cccc(C#N)c4F)c(C(F)(F)F)c23)[C@@H](C)C1` [Example 82, 3-cyano-2-fluoro-N-(3-((3R,4R)-1-isobutyryl-3-methylpiperidin-4-yl)-1-methyl-4-(trifluoromethyl)-1H-pyrrolo[2,3-b]pyridin-5-yl)benzamide]: 5.7 nM.
`CC(C)C(=O)N1CCC(c2cn(C)c3ncc(NC(=O)c4ccc(Cl)c(C#N)c4)c(C(F)(F)F)c23)CC1` [Example 11, 4-chloro-3-cyano-N-(3-(1-isobutyrylpiperidin-4-yl)-1-methyl-4-(trifluoromethyl)-1H-pyrrolo[2,3-b]pyridin-5-yl)benzamide] displayed an IC50 of 7.8 nM.
On to `Cc1c(NC(=O)c2cccc(C#N)c2)cnc2c1c([C@@H]1CCN(C(=O)CC3CCC3)C(C)(C)C1)cn2C` [Example 76, (R)-3-cyano-N-(3-(1-(2-cyclobutylacetyl)-2,2-dimethylpiperidin-4-yl)-1,4-dimethyl-1H-pyrrolo[2,3-b]pyridin-5-yl)benzamide], for which inhibition was half-maximal at 5 nM (IC50).
Then `COc1cc(C#N)cc(C(=O)Nc2cnc3c(c([C@@H]4CCN(C(=O)C5CCCC5)[C@@H](C)C4)cn3C)c2C)c1` [Example 90, 3-cyano-N-(3-((2S,4R)-1-(cyclopentanecarbonyl)-2-methylpiperidin-4-yl)-1,4-dimethyl-1H-pyrrolo[2,3-b]pyridin-5-yl)-5-methoxybenzamide], with 12.2 nM.
Then `Cn1cc(C2CCN(C(=O)C3CCCC3)CC2)c2c(C(F)(F)F)c(NC(=O)c3ccc(F)c(C#N)c3)cnc21` [Example 3, 3-cyano-N-(3-(1-(cyclopentanecarbonyl)piperidin-4-yl)-1-methyl-4-(trifluoromethyl)-1H-pyrrolo[2,3-b]pyridin-5-yl)-4-fluorobenzamide], with 39.2 nM.
The molecule `COc1cc(Cl)cc(C(=O)Nc2cnc3c(c([C@@H]4CCN(C(=O)C5CCCC5)C(C)(C)C4)cn3C)c2C)c1` [Example 63, (R)-3-chloro-N-(3-(1-(cyclopentane-carbonyl)-2,2-dimethylpiperidin-4-yl)-1,4-dimethyl-1H-pyrrolo[2,3-b]pyridin-5-yl)-5-methoxybenzamide] came in with a 50% inhibitory concentration (IC50) of 12 nM.
Take `COc1cc(Cl)cc(C(=O)Nc2cnc3c(c([C@@H]4CCN(C(=O)C(C)C)C(C)(C)C4)cn3C)c2C)c1` [Example 62, (R)-3-chloro-N-(3-(1-isobutyryl-2,2-dimethylpiperidin-4-yl)-1,4-dimethyl-1H-pyrrolo[2,3-b]pyridin-5-yl)-5-methoxybenzamide]: the IC50 was determined as 15.8 nM.
Then `Cn1cc(C2CCN(C(=O)C3CCCC3)CC2)c2c(C(F)(F)F)c(NC(=O)c3cc(O)cc(C#N)c3)cnc21` [Example 55, 3-cyano-N-(3-(1-(cyclopentanecarbonyl)piperidin-4-yl)-1-methyl-4-(trifluoromethyl)-1H-pyrrolo[2,3-b]pyridin-5-yl)-5-hydroxybenzamide], with 6 nM.
With `Cc1c(NC(=O)c2cccc(C#N)c2)cnc2c1c(C1CCN(C(=O)[C@H](C)C(C)C)CC1)cn2C` [Example 37, (R)-3-cyano-N-(3-(1-(2,3-dimethylbutanoyl)piperidin-4-yl)-1,4-dimethyl-1H-pyrrolo[2,3-b]pyridin-5-yl)benzamide], the half-maximal inhibitory concentration (IC50) was determined as 9.2 nM.

Broadly, the IC50 is the concentration that inhibits the measured activity by half. A high value points to weaker potency in that assay.
